Tests used:
[1] = target: Human immunodeficiency virus type 1 reverse transcriptase (Human immunodeficiency virus 1, UniProt Q72547); assay: Inhibition of wild type HIV-1 Reverse transcriptase
[2] = system: Human immunodeficiency virus 1; assay: Antiviral activity against HIV-1 K103N mutant infected in human MT4 cells assessed as reduction in viral replication by MTT assay; format: functional, organism-based; conditions: Human immunodeficiency virus 1, K103N mutant
[3] = Selectivity index, ratio of CC50 for cytotoxicity against human MT4 cells to EC50 of Anti-HIV activity against HIV-1 IIIB infected in human MT4 cells; format: toxicity, cell-based; conditions: read-out: Ratio CC50/EC50
[4] = system: Human immunodeficiency virus 1; assay: Antiviral activity against HIV-1 E138K mutant infected in human MT4 cells assessed as reduction in viral replication by MTT assay; format: functional, organism-based; conditions: Human immunodeficiency virus 1, E138K mutant
[5] = system: Human immunodeficiency virus 1; assay: Antiviral activity against HIV-1 Y188L mutant infected in human MT4 cells assessed as reduction in viral replication by MTT assay; format: functional, organism-based; conditions: Human immunodeficiency virus 1, Y188L mutant
[6] = system: Human immunodeficiency virus 1; assay: Antiviral activity against HIV-1 IIIB infected in human MT4 cells assessed as reduction in viral replication by MTT assay; format: functional, organism-based; conditions: Human immunodeficiency virus 1, IIIB
[7] = system: Human immunodeficiency virus 1; assay: Antiviral activity against HIV-1 L100I mutant infected in human MT4 cells assessed as reduction in viral replication by MTT assay; format: functional, organism-based; conditions: Human immunodeficiency virus 1, L100I mutant
[8] = system: Human immunodeficiency virus 1; assay: Antiviral activity against HIV-1 ROD infected in human MT4 cells assessed as reduction in viral replication by MTT assay; format: functional, organism-based
[9] = system: Human immunodeficiency virus 1; assay: Antiviral activity against HIV-1 K103N-Y181C mutant infected in human MT4 cells assessed as reduction in viral replication by MTT assay; format: functional, organism-based; conditions: Human immunodeficiency virus 1, K103N-Y181C mutant
[10] = system: Human immunodeficiency virus 1; assay: Antiviral activity against HIV-1 Y181C mutant infected in human MT4 cells assessed as reduction in viral replication by MTT assay; format: functional, organism-based; conditions: Human immunodeficiency virus 1, Y181C mutant
[11] = Cytotoxicity against human MT4 cells assessed as reduction on cell growth by MTT assay; format: toxicity, cell-based
[12] = system: Human immunodeficiency virus 1; assay: Antiviral activity against HIV-1 F227L-V106A mutant infected in human MT4 cells assessed as reduction in viral replication by MTT assay; format: functional, organism-based; conditions: Human immunodeficiency virus 1, F227L-V106A mutant
[13] = target: Cytochrome P450 2D6 (Homo sapiens, UniProt P10635); assay: Inhibition of CYP2D6 (unknown origin); format: ADME
Sequence of Cytochrome P450 2D6 (P10635 whole entry): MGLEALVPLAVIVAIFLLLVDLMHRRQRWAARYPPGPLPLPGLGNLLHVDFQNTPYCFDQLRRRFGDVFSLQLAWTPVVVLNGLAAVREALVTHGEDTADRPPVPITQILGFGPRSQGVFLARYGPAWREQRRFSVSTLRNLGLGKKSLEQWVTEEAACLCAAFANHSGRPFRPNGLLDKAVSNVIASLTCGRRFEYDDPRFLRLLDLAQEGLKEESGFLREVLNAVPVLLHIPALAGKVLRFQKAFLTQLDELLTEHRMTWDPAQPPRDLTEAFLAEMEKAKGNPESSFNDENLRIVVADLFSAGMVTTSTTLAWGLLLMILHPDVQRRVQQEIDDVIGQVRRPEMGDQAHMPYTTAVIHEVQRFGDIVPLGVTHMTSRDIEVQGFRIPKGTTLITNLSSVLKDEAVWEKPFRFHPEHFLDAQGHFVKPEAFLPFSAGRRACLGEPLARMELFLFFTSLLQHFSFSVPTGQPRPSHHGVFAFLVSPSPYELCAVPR

Compound | IC50 [1] [µM] | EC50 [2] [µM] | selectivity ratio [3] | EC50 [4] [µM] | EC50 [5] [µM] | EC50 [6] [µM] | EC50 [7] [µM] | EC50 [8] [µM] | EC50 [9] [µM] | EC50 [10] [µM] | CC50 [11] [µM] | EC50 [12] [µM] | IC50 [13] [µM]
Cc1cc(-c2cccc(F)c2)ccc1Oc1c(C(F)(F)F)ccn(Cc2n[nH]c(=O)n2C)c1=O | 5.44 | 2.59 | 5.2 | 3.99 | > 35 | 5.14 | 3.64 | > 35 | > 35 | > 35 | 26.7 | > 35 | 
COc1cc(-c2ccc(C#N)cc2)ccc1Oc1c(C(F)(F)F)ccn(Cc2n[nH]c(=O)n2C)c1=O | 24.6 | 13 | 17.6 | 19.5 | > 35 | 8.02 | 3.77 | > 35 | > 35 | 21.3 | 142 | > 35 | 
Cn1c(Cn2ccc(C(F)(F)F)c(Oc3c(F)cc(-c4cccc(F)c4)cc3F)c2=O)n[nH]c1=O | 26.3 | 6.34 | 4.42 | 6.81 | > 35 | 5.74 | 4.15 | > 35 | > 35 | > 35 | 25.4 | > 35 | 
Cn1c(Cn2ccc(C(F)(F)F)c(Oc3c(F)cc(-c4cccc(C#N)c4)cc3F)c2=O)n[nH]c1=O | 2.57 | 2.24 | 18.7 | 3.06 | > 35 | 1.14 | 1.85 | > 35 | > 35 | 8.64 | 21.2 | > 35 | 
Cn1c(Cn2ccc(C(F)(F)F)c(Oc3c(F)cc(-c4ccc(F)c(C#N)c4)cc3F)c2=O)n[nH]c1=O | 1.65 | 1.2 | 30.7 | 2.09 | > 35 | 0.62 | 1.61 | > 35 | > 35 | 4.69 | 18.9 | > 35 | 
Cc1cc(-c2ccc(F)c(C#N)c2)ccc1Oc1c(C(F)(F)F)ccn(Cc2n[nH]c(=O)n2C)c1=O | 5.49 | 1.59 | 13.7 | 2.31 | > 35 | 1.83 | 2.73 | > 35 | 8.59 | 6.03 | 25 | > 35 | 
Cn1c(Cn2ccc(C(F)(F)F)c(Oc3cc(C#N)cc(-c4ccc(F)c(C#N)c4)c3)c2=O)n[nH]c1=O | 0.29 | 0.051 | 2060 | 0.077 | 1.52 | 0.043 | 0.089 | > 35 | 1.01 | 0.45 | 87.9 | > 35 | 
Cn1c(Cn2ccc(C(F)(F)F)c(Oc3cc(C#N)cc(-c4cc(F)cc(C#N)c4)c3)c2=O)n[nH]c1=O | 0.17 | 0.026 | 2810 | 0.062 | 0.88 | 0.03 | 0.05 | > 35 | 0.42 | 0.18 | 84.4 | > 35 | 
Cc1cc(-c2cc(F)cc(C#N)c2)ccc1Oc1c(C(F)(F)F)ccn(Cc2n[nH]c(=O)n2C)c1=O | 5.34 | 1.27 | 17.6 | 1.9 | > 35 | 1.33 | 1.9 | > 35 | 6.89 | 5.96 | 23.3 | > 35 | 
Cn1c(Cn2ccc(C(F)(F)F)c(Oc3cc(C#N)cc(-c4ccc(F)cc4)c3)c2=O)n[nH]c1=O | 0.11 | 0.042 | > 4840 | 0.12 | 3.56 | 0.053 | 0.088 | > 35 | 1.46 | 0.34 | > 267 | > 35 | 
COc1cc(-c2cccc(C#N)c2)ccc1Oc1c(C(F)(F)F)ccn(Cc2n[nH]c(=O)n2C)c1=O | 28.6 | 12 | 14.8 | 18.5 | > 35 | 8.47 | 5.61 | > 35 | > 35 | 13.4 | 126 | > 35 | 
Cn1c(Cn2ccc(C(F)(F)F)c(Oc3cc(C#N)cc(-c4ccc(C#N)cc4)c3)c2=O)n[nH]c1=O | 0.52 | 0.078 | 3110 | 0.082 | 0.61 | 0.046 | 0.07 | > 35 | 2 | 0.45 | 142 | > 35 | 
Cc1ccc(-c2cc(C#N)cc(Oc3c(C(F)(F)F)ccn(Cc4n[nH]c(=O)n4C)c3=O)c2)cc1 | 1.53 | 0.54 | > 1150 | 0.15 | 1.66 | 0.23 | 0.097 | > 35 | 5.13 | 0.21 | > 267 | > 35 | 
Cc1cc(-c2ccc(F)cc2)ccc1Oc1c(C(F)(F)F)ccn(Cc2n[nH]c(=O)n2C)c1=O | 5.4 | 3.36 | 5.15 | 3.94 | > 35 | 5.05 | 3.26 | > 35 | > 35 | > 35 | 26 | > 35 | 
Cc1cc(-c2cccc(C#N)c2)ccc1Oc1c(C(F)(F)F)ccn(Cc2n[nH]c(=O)n2C)c1=O | 4.73 | 1.04 | 20.2 | 1.81 | > 35 | 1.35 | 1.38 | > 35 | 6.69 | 4.75 | 27.2 | > 35 | 
Cn1c(Cn2ccc(C(F)(F)F)c(Oc3cc(C#N)cc(-c4cccc(C#N)c4)c3)c2=O)n[nH]c1=O | 0.21 | 0.026 | 4500 | 0.026 | 0.36 | 0.023 | 0.016 | > 35 | 0.26 | 0.12 | 101 | > 35 | 
COc1cc(-c2ccc(F)c(C#N)c2)ccc1Oc1c(C(F)(F)F)ccn(Cc2n[nH]c(=O)n2C)c1=O | 42.5 | 11.2 | 5.74 | 21.8 | > 35 | 17.9 | 4.41 | > 35 | > 35 | 14.7 | 102 | > 35 | 
Cc1cc(-c2ccc(C#N)cc2)ccc1Oc1c(C(F)(F)F)ccn(Cc2n[nH]c(=O)n2C)c1=O | 4.8 | 1.65 | 21.7 | 2.42 | > 35 | 1.54 | 1.63 | > 35 | 6.55 | 6.26 | 33.4 | > 35 | 
COc1cc(-c2cc(F)cc(C#N)c2)ccc1Oc1c(C(F)(F)F)ccn(Cc2n[nH]c(=O)n2C)c1=O | 27.8 | 16 | 10.4 | 20.5 | > 35 | 10.8 | 7.77 | > 35 | > 35 | 14.2 | 113 | > 35 | 
Cn1c(Cn2ccc(C(F)(F)F)c(Oc3c(F)cc(-c4ccc(C#N)cc4)cc3F)c2=O)n[nH]c1=O | 3.13 | 1.14 | 29.5 | 1.46 | > 35 | 0.72 | 1.69 | > 35 | > 35 | 4.97 | 21.2 | > 35 | 
Cn1c(Cn2ccc(C(F)(F)F)c(Oc3cc(C#N)cc(-c4cccc(F)c4)c3)c2=O)n[nH]c1=O | 0.056 | 0.012 | 1270 | 0.021 | 0.83 | 0.015 | 0.021 | > 35 | 0.31 | 0.054 | 19.1 | > 35 | 
Cn1c(Cn2ccc(C(F)(F)F)c(Oc3c(F)cc(-c4cc(F)cc(C#N)c4)cc3F)c2=O)n[nH]c1=O | 3.25 | 2.07 | 10.2 | 5.2 | > 35 | 1.64 | 2.97 | > 35 | > 35 | > 35 | 16.6 | > 35 | 
COc1ccc2c(c1)[C@]13CCCC[C@@H]1[C@H](C2)N(C)CC3 [DEXTROMETHORPHAN] |  |  |  |  |  |  |  |  |  |  |  |  | 0.043
